How the values were obtained:
[1] = biological target: T1, HDAC7 (Homo sapiens, UniProt Q8WUI4); assay: HDAC biochemical activity measurement (fluorescent substrate deacetylation);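 also: fluorogenic deacetylation assay using acetyl-lysine substrate at 20 µM, enzyme and compound incubated 30 min at 37 °C, then developer added, fluorescence read at 360/460 nm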; conditions: HDAC7; 37° C. 30 minutes
T1 sequence (Q8WUI4 1-952): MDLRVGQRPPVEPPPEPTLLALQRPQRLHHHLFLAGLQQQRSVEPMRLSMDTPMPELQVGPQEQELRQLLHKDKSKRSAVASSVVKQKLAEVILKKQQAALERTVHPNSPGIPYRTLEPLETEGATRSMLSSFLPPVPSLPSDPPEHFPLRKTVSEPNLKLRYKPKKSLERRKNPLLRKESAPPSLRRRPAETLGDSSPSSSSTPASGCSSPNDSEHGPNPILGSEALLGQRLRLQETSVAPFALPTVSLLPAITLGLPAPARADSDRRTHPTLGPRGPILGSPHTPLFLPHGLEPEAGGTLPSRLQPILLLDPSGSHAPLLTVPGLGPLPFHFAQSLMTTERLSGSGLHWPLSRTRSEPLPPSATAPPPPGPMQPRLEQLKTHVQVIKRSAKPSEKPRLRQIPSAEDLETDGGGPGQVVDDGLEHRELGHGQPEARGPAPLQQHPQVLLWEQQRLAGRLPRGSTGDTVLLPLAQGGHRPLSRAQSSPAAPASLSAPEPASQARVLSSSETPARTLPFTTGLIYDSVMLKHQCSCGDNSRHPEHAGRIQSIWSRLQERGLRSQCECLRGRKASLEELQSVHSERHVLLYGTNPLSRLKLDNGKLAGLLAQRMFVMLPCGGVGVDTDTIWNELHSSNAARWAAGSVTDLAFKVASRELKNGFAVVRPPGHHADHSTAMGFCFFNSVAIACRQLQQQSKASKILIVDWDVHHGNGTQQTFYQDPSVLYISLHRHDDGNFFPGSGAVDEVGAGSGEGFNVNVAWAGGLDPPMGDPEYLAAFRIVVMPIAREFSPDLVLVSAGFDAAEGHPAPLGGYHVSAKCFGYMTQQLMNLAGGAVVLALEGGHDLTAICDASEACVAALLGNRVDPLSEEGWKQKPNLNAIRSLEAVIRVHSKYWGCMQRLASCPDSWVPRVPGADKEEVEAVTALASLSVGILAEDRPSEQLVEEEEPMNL

[2] = tested on: A549 (human lung cancer cells); assay: MTT cancer cell growth inhibition; type: cell-based; conditions: Homo sapiens, A549, 72 h, A549 cells, MTT, 72 hours incubation; read-out: GI50 A54
Procedure, shortened: (§1)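 Following overnight attachment of 1500 cells per well, each line was exposed to test drug (final 10^−5 to 10^−10 M) for 72 h in a humidified 37° C., 5% CO2 incubator. Four hours with MTT, DMSO dissolution of formazan, and a 570 nm reading yielded viability data used for GI50.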

[3] = tested on: BGC-823 (human gastric cancer cells); assay: MTT cancer cell growth inhibition; type: cell-based; conditions: Homo sapiens, BGC-823, 72 h, BGC-823 cells, MTT, 72 hours incubation; read-out: GI50 BG
Procedure, shortened: as §1

[4] = tested on: Bel-7402 (human hepatoma cells); assay: MTT cancer cell growth inhibition; type: cell-based; conditions: Homo sapiens, Bel-7402, 72 h, MTT, 72 hours incubation, Bel-7402 cells; read-out: GI50 Bel-7402
Procedure, shortened: as §1

[5] = tested on: DU145 (human prostate cancer cells); assay: MTT cancer cell growth inhibition; type: cell-based; conditions: Homo sapiens, DU-145, 72 h, DU145 cells, MTT, 72 hours incubation; read-out: GI50 Du1
Procedure, shortened: as §1

[6] = tested on: H1975 (non-small cell lung adenocarcinoma); assay: MTT cancer cell growth inhibition; type: cell-based; conditions: Homo sapiens, NCI-H1975, 72 h, MTT, 72 hours incubation, H1975 cells; read-out: GI50 H1975
Procedure, shortened: as §1

[7] = tested on: HCC827 (human non-small cell lung cancer cells); assay: MTT cancer cell growth inhibition; type: cell-based; conditions: Homo sapiens, HCC827, 72 h, MTT, 72 hours incubation, HCC827 cells; read-out: GI50 HCC827
Procedure, shortened: as §1

[8] = tested on: HT1080 (human fibrosarcoma cells); assay: MTT cancer cell growth inhibition; type: cell-based; conditions: Homo sapiens, HT-1080, 72 h, HT1080 cells, MTT, 72 hours incubation; read-out: GI50 HT1
Procedure, shortened: as §1

[9] = tested on: Hela (human cervical cancer cells); assay: MTT cancer cell growth inhibition; type: cell-based; conditions: Homo sapiens, HeLa, 72 h, Hela cells, MTT, 72 hours incubation; read-out: GI50 Hela
Procedure, shortened: as §1

[10] = tested on: Huh-7 (human hepatoma cells); assay: MTT cancer cell growth inhibition; type: cell-based; conditions: Homo sapiens, Huh-7, 72 h, MTT, 72 hours incubation, Huh-7 cells; read-out: GI50 Huh-7
Procedure, shortened: as §1

[11] = tested on: K562 (human leukemia cells); assay: MTT cancer cell growth inhibition; type: cell-based; conditions: Homo sapiens, K562, 72 h, MTT, 72 hours incubation, K562 cells; read-out: GI50 K562
Procedure, shortened: as §1

[12] = tested on: KBM-5 (human chronic myelogenous leukemia); assay: MTT cancer cell growth inhibition; type: cell-based; conditions: Homo sapiens, KBM5, 72 h, MTT, 72 hours incubation, KBM-5 cells; read-out: GI50 KBM-5
Procedure, shortened: as §1

[13] = tested on: KBM5-T315I (human chronic myelogenous leukemia); assay: MTT cancer cell growth inhibition; type: cell-based; conditions: Homo sapiens, 72 h, MTT, 72 hours incubation, KBM5-T315I cells; read-out: GI50 KBM5-T315I
Procedure, shortened: as §1

[14] = tested on: MCF-7 (human breast cancer cells); assay: MTT cancer cell growth inhibition; type: cell-based; conditions: Homo sapiens, MCF7, 72 h, MCF-7 cells, 72 hours incubation, read-out: GI50 MCF
Procedure, shortened: as §1

[15] = tested on: MDA-MB-231 (breast cancer cells); assay: MTT cancer cell growth inhibition; type: cell-based; conditions: Homo sapiens, MDA-MB-231, 72 h, read-out: GI50 MDA-MB-231, MTT, 72 hours incubation, MDA-MB-231 cells
Procedure, shortened: as §1

[16] = tested on: MOLT-4 (human acute lymphoblastic leukemia cells); assay: MTT cancer cell growth inhibition; type: cell-based; conditions: Homo sapiens, MOLT-4, 72 h, MOLT-4 cells, MTT, 72 hours incubation; read-out: GI50 Mol
Procedure, shortened: as §1

[17] = tested on: N-87 (human gastric cancer cells); assay: MTT cancer cell growth inhibition; type: cell-based; conditions: Homo sapiens, 72 h, MTT, 72 hours incubation, N-87 cells; read-out: GI50 N-87
Procedure, shortened: as §1

[18] = tested on: PANC-1 (Pac-1, human pancreatic cancer cells); assay: MTT cancer cell growth inhibition; type: cell-based; conditions: Homo sapiens, PANC-1, 72 h, PANC-1 cells, MTT, 72 hours incubation; read-out: GI50 PAN
Procedure, shortened: as §1

[19] = tested on: SGC-7901 (human gastric cancer cells); assay: MTT cancer cell growth inhibition; type: cell-based; conditions: Homo sapiens, SGC-7901, 72 h, MTT, 72 hours incubation, SGC-7901 cells; read-out: GI50 SGC-7901
Procedure, shortened: as §1

[20] = tested on: U937 (human leukemia cells); assay: MTT cancer cell growth inhibition; type: cell-based; conditions: Homo sapiens, U-937, 72 h, U937 cells, MTT, 72 hours incubation; read-out: GI50 U93
Procedure, shortened: as §1

[21] = tested on: lncap (prostate cancer cells); assay: MTT cancer cell growth inhibition; type: cell-based; conditions: Homo sapiens, LNCaP, 72 h, lncap cells, MTT, 72 hours incubation; read-out: GI50 lnca
Procedure, shortened: as §1

Row | SMILES | IC50 HDAC7 [1] | GI50 [2] [nM] | GI50 [3] [nM] | GI50 [4] [nM] | GI50 [5] [nM] | GI50 [6] [nM] | GI50 [7] [nM] | GI50 [8] [nM] | GI50 [9] [nM] | GI50 [10] [nM] | GI50 [11] [nM] | GI50 [12] [nM] | GI50 [13] [nM] | GI50 [14] [nM] | GI50 [15] [nM] | GI50 [16] [nM] | GI50 [17] [nM] | GI50 [18] [nM] | GI50 [19] [nM] | GI50 [20] [nM] | other results
1 | C/C=C1\NC(=O)c2ccc(SCCC)c(n2)CNC(=O)C[C@@H](/C=C/CCSC(=O)CCCCCCC)OC(=O)[C@H](CC)NC1=O [Compound 176] | no activity | 80 | 20 | 31 | 50 | 31 | 38 | 30 | 50 | 31 | 21 | 34 | 38 | 10 | 32 | 50 | 28 | 60 | 31 | 10 | GI50 [21]: 30 nM
2 | C/C=C1\NC(=O)c2nc(ccc2SC)CNC(=O)C[C@@H](/C=C/CCSC(C)=O)OC(=O)[C@H](CC)NC1=O [Compound 177] | no activity | 20 | 40 | 84 | 60 | 83 | 33 | 30 | 100 | 35 | 29 | 80 | 13 | 50 | 49 | 60 | 37 | 20 | 39 | 60 | GI50 [21]: 10 nM
3 | C/C=C1\NC(=O)c2nc(ccc2SC)CNC(=O)C[C@@H](/C=C/CCSC(=O)CCCCCCC)OC(=O)[C@H](C)NC1=O [Compound 180] | no activity | 30 | 50 | 48 | 60 | 97 | 13 | 50 | 100 | 17 | 49 | 29 | 57 | 20 | 56 | 50 | 62 | 30 | 35 | 70 | GI50 [21]: 20 nM
4 | C/C=C1\NC(=O)c2cc(SC)cc(n2)CNC(=O)C[C@@H](/C=C/CCSC(=O)CCCCCCC)OC(=O)[C@H](C)NC1=O [Compound 181] | no activity | 50 | 30 | 38 | 60 | 35 | 41 | 60 | 70 | 37 | 23 | 15 | 33 | 70 | 18 | 80 | 36 | 40 | 28 | 20 | GI50 [21]: 80 nM
5 | C/C=C1\NC(=O)c2ccc(SC)c(n2)CNC(=O)C[C@@H](/C=C/CCSC(=O)CCCCCCC)OC(=O)[C@H](C)NC1=O [Compound 182] | no activity | 60 | 70 | 35 | 50 | 39 | 23 | 30 | 60 | 35 | 83 | 31 | 41 | 30 | 35 | 30 | 23 | 90 | 71 | 80 | GI50 [21]: 100 nM

Reference: patent US10065990B2, “Cyclic peptide compound, and preparation method, pharmaceutical composition and use thereof” (HANGZHOU GUANYU BIO-MEDICAL CO., LTD, priority 2013, dated 2018)
